The term IC50 denotes the concentration that inhibits the measured activity by half. Low values mean inhibition by little substance, high ones a need for much substance.

The source of these data is patent publication US11124537B2, “Inhibitors of glucocorticoid receptor” (ORIC Pharmaceuticals, Inc., priority 2015, dated 2021).

The target of the test is GR (Homo sapiens (Human), UniProt P04150). Kind of test: In Vitro GR Luciferase Reporter Assay. The class given is cell-based. The note with it: CHO-K1-GR-MMTV-Luc reporter cells, antagonist assay, 10 nM Dexamethasone, 18-24 hours. An excerpt: Example 4: In Vitro GR Luciferase Reporter Assay
Sequence of GR (P04150 whole entry): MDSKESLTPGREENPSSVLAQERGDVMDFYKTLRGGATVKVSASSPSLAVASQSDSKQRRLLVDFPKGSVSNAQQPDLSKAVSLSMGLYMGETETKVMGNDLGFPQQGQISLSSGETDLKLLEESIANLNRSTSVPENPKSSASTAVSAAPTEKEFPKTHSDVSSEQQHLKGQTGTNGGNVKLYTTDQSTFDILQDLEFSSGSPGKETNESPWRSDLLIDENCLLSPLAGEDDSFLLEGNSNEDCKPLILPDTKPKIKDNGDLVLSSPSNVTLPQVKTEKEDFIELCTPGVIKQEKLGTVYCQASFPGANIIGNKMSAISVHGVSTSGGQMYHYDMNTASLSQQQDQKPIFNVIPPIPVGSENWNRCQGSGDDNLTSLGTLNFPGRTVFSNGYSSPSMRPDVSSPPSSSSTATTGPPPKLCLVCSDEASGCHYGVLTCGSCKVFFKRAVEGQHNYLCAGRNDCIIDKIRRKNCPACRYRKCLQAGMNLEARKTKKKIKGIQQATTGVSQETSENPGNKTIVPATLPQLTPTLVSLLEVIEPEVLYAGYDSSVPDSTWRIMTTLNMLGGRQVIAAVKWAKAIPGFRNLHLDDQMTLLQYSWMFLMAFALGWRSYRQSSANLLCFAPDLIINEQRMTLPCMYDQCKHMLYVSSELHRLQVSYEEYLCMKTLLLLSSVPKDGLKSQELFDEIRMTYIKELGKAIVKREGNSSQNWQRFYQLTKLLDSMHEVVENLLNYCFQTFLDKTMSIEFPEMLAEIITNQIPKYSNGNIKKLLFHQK
Cell Line: CHO-K1-GR-MMTV-Luc reporter cells
Culture Media: DMEM (with phenol red)+10% FBS
Assay Media: DMEM (without phenol red)+10% CSS
Culture CHO-K1-GR-MMTV-Luc reporter cells in 15 cm plates in Culture Media at conditions less than 90% confluence.
Prepare 200×DMSO 1:5 serial dilutions of control and test compounds in 96-well non-sterile V bottom plate in DMSO, 8 serial dilutions for each compound.
Prepare 5× Assay Media diluted compound serial dilutions in 96-well non-sterile V bottom plate: Add 97.5 uL/well of Assay Media into 96-well then add 2.5 ul of 200× concentration of compounds and mix well.
Seed cells for Antagonist Assay: […] CHO-K1-GR-MMTV-Luc reporter cells were seeded in a Corning 3707 flat clear bottom 384-well white TC plate in 20 ul of Assay Media containing 12.5 nM Dexamethasone (final concentration=10 nM).
Add compounds: 5 ul of assay media diluted compounds were added to appropriate wells and followed a quick spin (1000 rpm, 10 sec) to bring media and cells to the bottom of plate. The plates were covered with SealMate film to avoid evaporation and placed in 37° C. incubator for approximately 18-24 hours.
Read plates: Equilibrate appropriate amount of Promega OneGlo luciferase reagent to room temperature. Remove the plates from incubator and add 25 uL of OneGlo reagent/well by multiple channel pipette and read the plates with Tecan F500 luminometer within 3 minutes.
The ability of the compounds disclosed herein to inhibit GR activity was quantified and the respective IC50 value was determined. Table 3 provides the cellular IC50 values of various substituted steroidal compounds disclosed herein.
On the technique in general: In a reporter assay the amount or activity of a reporter protein is the signal.
Consider `COC(C)(C)C#C[C@]1(O)CC[C@H]2[C@@H]3CCC4=CC(=O)CCC4=C3[C@@H](c3ccc(N(C)CC(F)(F)F)cc3)C[C@@]21C`, for which the IC50 is ≤ 100 nM. As to `CN(C)c1ccc([C@H]2C[C@@]3(C)[C@@H](CC[C@@]3(O)C#Cc3ccc(C(C)(C)C)cc3)[C@@H]3CCC4=CC(=O)CCC4=C32)cc1`, the IC50 was > 100 nM. For `CN(CC1CC1)c1ccc([C@H]2C[C@@]3(C)[C@@H](CC[C@@]3(O)C#CC(C)(C)C)[C@@H]3CCC4=CC(=O)CCC4=C32)cc1`, the IC50 is > 100 nM. Turning to `CCc1cc(F)c([C@H]2C[C@@]3(C)[C@@H](CC[C@@]3(O)C#CC(C)C)[C@@H]3CCC4=CC(=O)CCC4=C32)c(F)c1`, the IC50 was ≤ 100 nM. For `COc1ccc([C@H]2C[C@@]3(C)[C@@H](CC[C@@]3(O)C#CC(C)C)[C@@H]3CCC4=CC(=O)CCC4=C32)cc1F`, the IC50 was ≤ 100 nM. Regarding `CC(C)(C)C#C[C@]1(O)CC[C@H]2[C@@H]3CCC4=CC(=O)CCC4=C3[C@@H](c3cccc(C4CC4)c3)C[C@@]21C` [drawing 279], the IC50 was > 100 nM.

Turning to `CN(C)c1ccc([C@H]2C[C@@]3(C)[C@@H](CC[C@@]3(O)C#CC3CC3)[C@@H]3CCC4=CC(=O)CCC4=C32)c(F)c1F` [drawing 303], the IC50 is ≤ 100 nM. The figure for `Cc1c(F)cc([C@H]2C[C@@]3(C)[C@@H](CC[C@@]3(O)C#CC3CC3)[C@@H]3CCC4=CC(=O)CCC4=C32)cc1F` is ≤ 100 nM; for `COC(C)(C)C#C[C@]1(O)CC[C@H]2[C@@H]3CCC4=CC(=O)CCC4=C3[C@@H](c3ccc(N(C)C)cc3)C[C@@]21C` it is ≤ 100 nM; for `CN(C)c1cc(F)c([C@H]2C[C@@]3(C)[C@@H](CC[C@@]3(O)C#CC(C)(C)C)[C@@H]3CCC4=CC(=O)CCC4=C32)c(F)c1` it is ≤ 100 nM. Take `C[C@]12C[C@H](c3ccc4c(c3)OCO4)C3=C4CCC(=O)C=C4CC[C@H]3[C@@H]1CC[C@@]2(O)C#Cc1ccc(S(C)(=O)=O)cc1`: the IC50 is ≤ 100 nM. The figure for `C[C@]12C[C@H](c3ccc4c(c3)OCO4)C3=C4CCC(=O)C=C4CC[C@H]3[C@@H]1CC[C@@]2(O)C#CC1CC1` is ≤ 100 nM; for `[2H]C([2H])([2H])N(c1ccc([C@H]2C[C@@]3(C)[C@@H](CC[C@@]3(O)C#CC(C)(C)C)[C@@H]3CCC4=CC(=O)CCC4=C32)cc1)C([2H])([2H])[2H]` it is ≤ 100 nM.

For `CC(C)(C)C#C[C@]1(O)CC[C@H]2[C@@H]3CCC4=CC(=O)CCC4=C3[C@@H](c3ccc(C(C)(C)CO)cc3)C[C@@]21C`, the IC50 is ≤ 100 nM. Turning to `Cc1ccc([C@H]2C[C@@]3(C)[C@@H](CC[C@@]3(O)C#CC(C)(C)C)[C@@H]3CCC4=CC(=O)CCC4=C32)cc1`, the IC50 is ≤ 100 nM. For the compound `CC(C)(C)C#C[C@]1(O)CC[C@H]2[C@@H]3CCC4=CC(=O)CCC4=C3[C@@H](c3cc(F)c(-c4ccncc4)cc3F)C[C@@]21C`, the half-inhibitory concentration (IC50) was ≤ 100 nM.

In the case of `Cc1ccc([C@H]2C[C@@]3(C)[C@@H](CC[C@@]3(O)C#CC3CC3)[C@@H]3CCC4=CC(=O)CCC4=C32)cc1F`, the half-maximal inhibitory concentration (IC50) is ≤ 100 nM. In the case of `CN(C)c1ccc([C@H]2C[C@@]3(C)[C@@H](CC[C@@]3(O)C#CCO)[C@@H]3CCC4=CC(=O)CCC4=C32)cc1`, the IC50 is > 100 nM. Turning to `CC(C)(C)C#C[C@]1(O)CC[C@H]2[C@@H]3CCC4=CC(=O)CCC4=C3[C@@H](c3ccc4c(c3)OCCO4)C[C@@]21C`, the IC50 is ≤ 100 nM. The figure for `Cc1ccc([C@H]2C[C@@]3(C)[C@@H](CC[C@@]3(O)C#CC(C)(C)C)[C@@H]3CCC4=CC(=O)CCC4=C32)cc1C` is ≤ 100 nM. For `CC(C)(C)C#C[C@]1(O)CC[C@H]2[C@@H]3CCC4=CC(=O)CCC4=C3[C@@H](c3ccc(N4CCC[C@@H]4CO)cc3)C[C@@]21C` [drawing 364], the IC50 was ≤ 100 nM. Take `CC(C)C#C[C@]1(O)CC[C@H]2[C@@H]3CCC4=CC(=O)CCC4=C3[C@@H](c3ccc4c(c3)OCO4)C[C@@]21C`: the IC50 is ≤ 100 nM.

Take `COc1ccc([C@H]2C[C@@]3(C)[C@@H](CC[C@@]3(O)C#CC(C)(C)C)[C@@H]3CCC4=CC(=O)CCC4=C32)cc1`: the IC50 was ≤ 100 nM. For the compound `CC(C)(C)C#C[C@]1(O)CC[C@H]2[C@@H]3CCC4=CC(=O)CCC4=C3[C@@H](c3ccc(C4CC4)cc3)C[C@@]21C`, the IC50 is ≤ 100 nM. For `CC(C)Oc1cccc([C@H]2C[C@@]3(C)[C@@H](CC[C@@]3(O)C#CC(F)(F)F)[C@@H]3CCC4=CC(=O)CCC4=C32)c1` the value was > 100 nM; for `CN(C)c1ccc([C@H]2C[C@@]3(C)[C@@H](CC[C@@]3(O)C#CC(C)(C)C)[C@@H]3CCC4=CC(=O)CCC4=C32)c(F)c1F`, ≤ 100 nM; for `[2H]C([2H])([2H])C#C[C@]1(O)CC[C@H]2[C@@H]3CCC4=CC(=O)CCC4=C3[C@@H](c3cc(F)c(C)c(F)c3)C[C@@]21C`, ≤ 100 nM. `CCN(C)c1cc(F)c([C@H]2C[C@@]3(C)[C@@H](CC[C@@]3(O)C#CC(C)C)[C@@H]3CCC4=CC(=O)CCC4=C32)c(F)c1`: the IC50 is ≤ 100 nM.

For `CC(C)(C)C#C[C@]1(O)CC[C@H]2[C@@H]3CCC4=CC(=O)CCC4=C3[C@@H](c3cc(F)c(-c4cncnc4)cc3F)C[C@@]21C`, the IC50 is ≤ 100 nM.

Regarding `Cc1ccc([C@H]2C[C@@]3(C)[C@@H](CC[C@@]3(O)C#CC(C)C)[C@@H]3CCC4=CC(=O)CCC4=C32)cc1F`, the IC50 was ≤ 100 nM.

As to `Cc1ccc(-c2cc(F)c([C@H]3C[C@@]4(C)[C@@H](CC[C@@]4(O)C#CC(C)(C)C)[C@@H]4CCC5=CC(=O)CCC5=C43)cc2F)cn1`, the IC50 is > 100 nM. The figure for `Cc1c(F)cc([C@H]2C[C@@]3(C)[C@@H](CC[C@@]3(O)C#Cc3ccc(N(C)C)cc3)[C@@H]3CCC4=CC(=O)CCC4=C32)cc1F` is > 100 nM; for `Cc1cc([C@H]2C[C@@]3(C)[C@@H](CC[C@@]3(O)C#CC(C)(C)C)[C@@H]3CCC4=CC(=O)CCC4=C32)ccc1N(C)C` [drawing 283] it is ≤ 100 nM. Take `CC(C)(C)C#C[C@]1(O)CC[C@H]2[C@@H]3CCC4=CC(=O)CCC4=C3[C@@H](c3ccc(NCC4CC4)cc3)C[C@@]21C`: the IC50 was ≤ 100 nM.

Take `CC(C)C#C[C@]1(O)CC[C@H]2[C@@H]3CCC4=CC(=O)CCC4=C3[C@@H](c3cc(F)c(C(C)C)c(F)c3)C[C@@]21C` [drawing 299]: the IC50 was ≤ 100 nM.

With `CC(C)N(C)c1ccc([C@H]2C[C@@]3(C)[C@@H](CC[C@@]3(O)C#Cc3ccc(S(C)(=O)=O)cc3)[C@@H]3CCC4=CC(=O)CCC4=C32)cc1`, the IC50 is ≤ 100 nM. The figure for `CN(C)c1ccc([C@H]2C[C@@]3(C)[C@@H](CC[C@@]3(O)C#CC(C)(C)C)[C@@H]3CCC4=CC(=O)CCC4=C32)cc1` is ≤ 100 nM; for `CC(C)(C)C#C[C@]1(O)CC[C@H]2[C@@H]3CCC4=CC(=O)CCC4=C3[C@@H](c3ccc(N4CCN(C(=O)CO)CC4)cc3)C[C@@]21C` it is ≤ 100 nM; for `CC(C)C#C[C@]1(O)CC[C@H]2[C@@H]3CCC4=CC(=O)CCC4=C3[C@@H](c3c(F)cc(N4CCCC4)cc3F)C[C@@]21C` it is ≤ 100 nM. Regarding `Cc1c(F)cc([C@H]2C[C@@]3(C)[C@@H](CC[C@@]3(O)C#CC(C)(C)C)[C@@H]3CCC4=CC(=O)CCC4=C32)cc1F`, the IC50 is > 100 nM. On to `COC(C)(C)C#C[C@]1(O)CC[C@H]2[C@@H]3CCC4=CC(=O)CCC4=C3[C@@H](c3ccc(N4CCS(=O)(=O)CC4)cc3)C[C@@]21C`, for which the IC50 was > 100 nM. Take `CN(C)c1ccc([C@H]2C[C@@]3(C)[C@@H](CC[C@@]3(O)C#Cc3ccc(C#N)cc3)[C@@H]3CCC4=CC(=O)CCC4=C32)cc1`: the IC50 is ≤ 100 nM.

Turning to `Cc1ccc([C@H]2C[C@@]3(C)[C@@H](CC[C@@]3(O)C#CC(F)(F)F)[C@@H]3CCC4=CC(=O)CCC4=C32)cc1F`, the IC50 is > 100 nM. On to `CC(C)(C)C#C[C@]1(O)CC[C@H]2[C@@H]3CCC4=CC(=O)CCC4=C3[C@@H](c3ccc4c(c3)OCO4)C[C@@]21C` [drawing 331], for which the IC50 was ≤ 100 nM.

In the case of `Cc1c(F)cc([C@H]2C[C@@]3(C)[C@@H](CC[C@@]3(O)C#Cc3ccccn3)[C@@H]3CCC4=CC(=O)CCC4=C32)cc1F`, the IC50 was > 100 nM. Take `CN(C)c1cc(F)c([C@H]2C[C@@]3(C)[C@@H](CC[C@@]3(O)C#CC3CC3)[C@@H]3CCC4=CC(=O)CCC4=C32)cc1F`: the IC50 is ≤ 100 nM.

For `CCN(CC)c1cc(F)c([C@H]2C[C@@]3(C)[C@@H](CC[C@@]3(O)C#CC(C)C)[C@@H]3CCC4=CC(=O)CCC4=C32)c(F)c1`, the IC50 was ≤ 100 nM. Regarding `CN(C)c1c(F)cc([C@H]2C[C@@]3(C)[C@@H](CC[C@@]3(O)C#CC(F)(F)F)[C@@H]3CCC4=CC(=O)CCC4=C32)cc1F`, the IC50 is > 100 nM. For the compound `CC(C)(C)C#C[C@]1(O)CC[C@H]2[C@@H]3CCC4=CC(=O)CCC4=C3[C@@H](c3ccc(C(C)(C)C)cc3)C[C@@]21C` [drawing 268], the IC50 is ≤ 100 nM.
